# Measurements reported in US8946423B2, “Highly soluble salt of pyrroloquinoline quinone and method for producing the same” (Mitsubishi Gas Chemical Company, Inc., priority 2010, dated 2015).
# Assay: Dissolution test: salts dissolved up to saturation, solubility determined by absorbance at 450 nm
# Settings: for solubility of pyrroloquinoline, mmol/L / solubility of pyrroloquinoline: saturation at room temperature of 23 to 28° C.; for Relative Ratio (solubility): relative to Disodium Salt of PQQ in water = 1
# Method: The disodium salt of PQQ obtained by the method as described in Example 1 was used.
# These salts were dissolved up to saturation at room temperature of 23 to 28° C., and these solutions each were diluted by 20 times or 400 times with a phosphate buffer having a pH of 7.5. For the diluted solutions each, an analysis of the ultraviolet-visible absorption spectra was carried out using a HITACHI U-2000 spectrometer.
Compound,"solubility of pyrroloquinoline, mmol/L (Solvent Ethanol)","solubility of pyrroloquinoline, mmol/L (Solvent Water)",Relative Ratio (solubility) (Solvent Ethanol),solubility of pyrroloquinoline (Solvent Ethanol),Relative Ratio (solubility) (Solvent Water),solubility of pyrroloquinoline (Solvent Water),solubility in ethanol (in words)
C[N+](C)(C)CCO.C[N+](C)(C)CCO.C[N+](C)(C)CCO.O=C(O)c1cc(C(=O)O)c2c(n1)C(=O)C(=O)c1cc(C(=O)O)[nH]c1-2 [Tricholine Salt of PQQ],≥ 171 or mmol/L,≥ 171 or mmol/L,,,,,
Dicholine Salt of PQQ,,,13.9,111 mM,11.8,94 mM,
"O=C([O-])c1cc(C(=O)[O-])c2c(n1)C(=O)C(=O)c1cc(C(=O)O)[nH]c1-2.[Na+].[Na+] [Disodium Salt of PQQ, reference compound]",,,,,,,almost insoluble
Monocholine Salt of PQQ,,,0.06,0.52 mM,0.24,1.94 mM,
